Experimental data: patent US11883402B2, “Crystalline forms of a quinazoline compound and its hydrochloride salts” (Hanmi Pharmaceutical Co., Ltd., priority 2018, dated 2024)
Blank lines part the entries; values can stand above or below the compound they belong to.

Tests used:
Assay type in all cases: physicochemical
[1] = Dynamic vapor sorption (DVS) hygroscopicity; settings: for Hygroscopic degree (DVS): 25° C.
Experimental: Dynamic Vapor Sorption (DVS) analysis was conducted on the DVS advantage (Surface measurement system, United Kingdom) analyzer at 25° C. and relative humidity of 0-90%.
10 mg of sample was placed in the wire mesh steam sorption balance pan and attached to the DVS-advantage dynamic vapor adsorption balance by the Surface Measurement Systems. […] After the completion of the sorption cycle, the sample was dried using the same procedure, during which the relative humidity was returned to a relative humidity […] all the time. The change in weight during the sorption/desorption cycle (repetition of 3 times) was recorded to determine the hygroscopicity of the sample.

[2] = Behaviour under long-term, accelerated and harsh storage conditions (moisture absorption, stability of form)
[3] = Comparative test of solubility of amorphous form and crystalline polymorphs of the hydrochloride salt (Test Example 1); settings: 25° C., loading of 1.0 mg/mL, LOD 0.1 μg/mL, based on compound of formula (1), listed as HCl cryst. hydrate
Experimental: To compare the solubility of amorphous hydrochloride salt form and crystalline hydrochloride salt polymorphs, each of the polymorphs and amorphous form of the hydrochloride salt of the compound of chemical formula (1) prepared in Examples 4 to 6 was used to prepare samples under the following conditions according to non-ionized water and acidity (pH). Thereafter, each solution was analyzed by high performance liquid chromatography (HPLC) according to the measurement conditions of the content of the compound of chemical formula (1) to measure the dissolved amount (LOD: 0.1 μg/mL) based on the compound of chemical formula (1).
Specifically, 5 mg of each polymorph was added to 5 ml of water and mixed using a Voltamixer at 20-25° C. Thereafter, the filtrate obtained by filtrating using GH Polypro membrane Acrodisc, PALL (pore size 0.2 μm) was diluted with a dilution solvent for high performance liquid chromatography (HPLC) at a ratio of 1/100, to obtain the samples.

[4] = Comparative test of stability (HPLC purity on storage) of amorphous form and crystalline polymorphs of the hydrochloride salt (Test Example 2); settings: listed as HCl amorphous
Experimental: High performance liquid chromatography (HPLC) was conducted on the Agilent 1100/1200 series HPLC Systems (Agilent, USA) analyzer for the purpose of purity and content analysis including stability test and the like. The analysis conditions of the HPLC are as follows.
To compare the stability of amorphous hydrochloride salt form and crystalline hydrochloride salt polymorphs, each of samples of the polymorphs and amorphous form of the hydrochloride salt of the compound of chemical formula (1) prepared in Examples 4 to 6 was left for 4 weeks under long term conditions (e.g., temperature of 25±2° C. and relative humidity of 60±5%) and accelerated conditions (e.g., temperature of 40° C. and relative humidity of 75%). Each sample was analyzed by high performance liquid chromatography (HPLC) according to the purity measurement conditions of the compound of chemical formula (1).

Hygroscopic degree (DVS) ([1]; relative humidity range of 10%-50%): 0.3-0.5%
Hygroscopic degree (DVS) ([1]; relative humidity range of 50-90%): about 3%
SMILES: C=CC(=O)N1CCC(Oc2cc3c(Nc4ccc(Cl)c(Cl)c4F)ncnc3cc2OC)CC1 [Example 2, 1-(4-(4-(3,4-dichloro-2-fluorophenylamino)-7-methoxyquinazolin-6-yloxy)piperidin-1-yl)prop-2-en-1-one]

Stability under storage conditions (in words) ([2]; long-term (25° C., 60% RH), accelerated (40° C., 75% RH) and harsh (60° C.) conditions): sufficiently stable
SMILES: C=CC(=O)N1CCC(Oc2cc3c(Nc4ccc(Cl)c(Cl)c4F)ncnc3cc2OC)CC1 [Example 3, 1-(4-(4-(3,4-dichloro-2-fluorophenylamino)-7-methoxyquinazolin-6-yloxy)piperidin-1-yl)prop-2-en-1-one]

Solubility, Water [3]: <LOD
SMILES: C=CC(=O)N1CCC(Oc2cc3c(Nc4ccc(Cl)c(Cl)c4F)ncnc3cc2OC)CC1 [Example 4, 1-(4-(4-(3,4-dichloro-2-fluorophenylamino)-7-methoxyquinazolin-6-yloxy)piperidin-1-yl)prop-2-en-1-one]

Moisture absorption on storage (in words) ([2]; long-term (25° C., 60% RH) and accelerated (40° C., 75% RH) conditions): did not absorb moisture
SMILES: C=CC(=O)N1CCC(Oc2cc3c(Nc4ccc(Cl)c(Cl)c4F)ncnc3cc2OC)CC1 [Example 5, 1-(4-(4-(3,4-dichloro-2-fluorophenylamino)-7-methoxyquinazolin-6-yloxy)piperidin-1-yl)prop-2-en-1-one]

Purity (HPLC, %) 3 days ([4]; 25 ± 2° C., 60 ± 5% RH): 98.0%
Purity (HPLC, %) Start ([4]; 25 ± 2° C., 60 ± 5% RH): 98.0%
Purity (HPLC, %) Week 1 ([4]; 25 ± 2° C., 60 ± 5% RH): 98.0%
Purity (HPLC, %) Week 2 ([4]; 25 ± 2° C., 60 ± 5% RH): 97.9%
Purity (HPLC, %) Week 4 ([4]; 25 ± 2° C., 60 ± 5% RH): 97.9%
Purity (HPLC, %) 3 days ([4]; 40 ± 2° C., 75 ± 5% RH): 97.9%
Purity (HPLC, %) Start ([4]; 40 ± 2° C., 75 ± 5% RH): 98.0%
Purity (HPLC, %) Week 1 ([4]; 40 ± 2° C., 75 ± 5% RH): 97.9%
Purity (HPLC, %) Week 2 ([4]; 40 ± 2° C., 75 ± 5% RH): 97.8%
Purity (HPLC, %) Week 4 ([4]; 40 ± 2° C., 75 ± 5% RH): 97.6%
Hygroscopic degree (DVS), in words ([1]; relative humidity range of 10-90%): very high hygroscopic degree
Moisture absorption on storage ([2]; 25° C., 60% relative humidity and 40° C., 75% relative humidity): 7-9%
SMILES: C=CC(=O)N1CCC(Oc2cc3c(Nc4ccc(Cl)c(Cl)c4F)ncnc3cc2OC)CC1 [Example 6, 1-(4-(4-(3,4-dichloro-2-fluorophenylamino)-7-methoxyquinazolin-6-yloxy)piperidin-1-yl)prop-2-en-1-one]
